Literature values as cited in patent publication US20220152157A1 (priority 2020, published 2022).
Like-named read-outs stand apart in the source and are kept apart here.

Experiments:
virus [1] = conditions: ferrets
pulmonary inflammation = conditions: in vivo
virus [2] = conditions: mice
influenza A virus = conditions: for membrane convergence of virus and host cell: influenza A, model MDCK cells
[3] = system: Toll-like receptors (TLR)
[4] = system: human respiratory viruses; conditions: combined with ribavirin, in vitro
[5] = system: human respiratory viruses; conditions: combined with ribavirin, experimental animal models

| Molecule | viricidal effect (virus [1]) | lowering of total inflammatory cell infiltrates (neutrophils and lymphocytes) (pulmonary inflammation) [%] | virus-induced proinflammatory cytokines (pulmonary inflammation) | viricidal effect (virus [2]) | binding affinity for the influenza A virus (influenza A virus) | binding of the influenza A virus to the surrogate host cells (influenza A virus) | membrane convergence of virus and host cell (influenza A virus) | deactivation of Toll-like receptors (TLR) [3] | antiviral effects of the combination [4] | antiviral effects of the combination [5] |
| --- | --- | --- | --- | --- | --- | --- | --- | --- | --- | --- |
| 1-palmitoyl-2-oleoyl-sn-glycero-3-phosphoglycerol [POPG] | viricidal | > 90 | reduced | viricidal | high binding affinity | prevent the binding | inhibited | deactivators of Toll-like receptors | – | – |
| CCCCC/C=C\C/C=C\C/C=C\C/C=C\CCCC(=O)OC(COC(=O)CCCCCCCCCCCCCCCCC)COP(=O)(O)OC1C(O)C(O)C(O)C(O)C1O (centres unmarked) [PI, phosphatidyl inositol] | – | – | reduced | – | high binding affinity | prevent the binding | inhibited | deactivators of Toll-like receptors | – | – |
| CC(N)C12CC3CC(CC(C3)C1)C2 (centres unmarked) [Rimantadine] | – | – | – | – | – | – | – | – | increased antiviral effects | increased antiviral effects |
| NC12CC3CC(CC(C3)C1)C2 [amantadine] | – | – | – | – | – | – | – | – | increased antiviral effects | increased antiviral effects |
